Test results as given in patent publication US11479551B2, “MTA-cooperative PRMT5 inhibitors” (Mirati Therapeutics, Inc., priority 2019, dated 2022).

Experiments:
PRMT5/MEP50 complex = PRMT5/MEP50 complex (Homo sapiens (Human), UniProt O14744); assay: PRMT5:MEP50 HotSpot Assay (full-length histone H2A substrate, plus and minus MTA); type: biochemical; conditions: IC50 + 2 μM MTA, in the presence of 2 μM MTA
How it was run: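 Radiometric filter-binding format using recombinant full-length histone H2A as substrate. After the reaction was stopped, mixtures went onto filter paper and tritiated H2A was quantified by scintillation counting.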

HCT116 parental cells = assay: Proliferation assay (CellTiter-Glo, 10 days of treatment), HCT116 parental; type: cell-based; conditions: Homo sapiens, HCT-116, 240 h
How it was run: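 250 cells seeded in McCoy's 5A with 10% FBS, then given a dose response of PRMT5 inhibitor at 37 °C, 5% CO2 for five days. Cells were split 1:10 on Day 6 into fresh medium with the same compound concentration for 5 more days. Viability read on Day 11 by CellTiter-Glo; IC50 after 10 days of treatment.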

[1] = system: HCT116 homozygous MTAP knockout cells; assay: Proliferation assay (CellTiter-Glo, 10 days of treatment), HCT116 MTAP knockout; type: cell-based; conditions: Homo sapiens, HCT-116, 240 h, read-out: Proliferation HCT116MTAP_KO IC50
How it was run: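 Cells (250/well) seeded in McCoy's 5A with 10% FBS, then treated the next day with a PRMT5 inhibitor dose response at 37 °C, 5% CO2. On day 6 they were split 1:10 into fresh medium with the same compound concentration. CellTiter-Glo viability was read on day 11 and IC50 taken after 10 days of treatment.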

[2] = system: PRMT5-dependent Symmetric Di-methyl Arginine signal in HCT116 parental cells; assay: SYM11 In-Cell Western, HCT116 parental; type: cell-based; conditions: Homo sapiens, HCT-116, 96 h, 4 days of treatment, SYM11/DRAQ5 ratio
How it was run: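 HCT116 parental cells (2,000/well, McCoy's 5A with 10% FBS) dosed with PRMT5 inhibitors for four days at 37° C. Fixed in paraformaldehyde and methanol, then stained with SYM11 antibody and DRAQ5.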

[3] = system: PRMT5-dependent Symmetric Di-methyl Arginine signal in HCT116 homozygous MTAP knockout cells; assay: SYM11 In-Cell Western, HCT116 MTAP knockout; type: cell-based; conditions: Homo sapiens, HCT-116, 96 h, HCT116 homozygous MTAP knockout cells, 4 days of treatment, SYM11/DRAQ5 ratio; read-out: In-cell-Western (SYM11) HCT116 MTAP_KO IC50

Sequence of PRMT5/MEP50 complex (O14744 2-637): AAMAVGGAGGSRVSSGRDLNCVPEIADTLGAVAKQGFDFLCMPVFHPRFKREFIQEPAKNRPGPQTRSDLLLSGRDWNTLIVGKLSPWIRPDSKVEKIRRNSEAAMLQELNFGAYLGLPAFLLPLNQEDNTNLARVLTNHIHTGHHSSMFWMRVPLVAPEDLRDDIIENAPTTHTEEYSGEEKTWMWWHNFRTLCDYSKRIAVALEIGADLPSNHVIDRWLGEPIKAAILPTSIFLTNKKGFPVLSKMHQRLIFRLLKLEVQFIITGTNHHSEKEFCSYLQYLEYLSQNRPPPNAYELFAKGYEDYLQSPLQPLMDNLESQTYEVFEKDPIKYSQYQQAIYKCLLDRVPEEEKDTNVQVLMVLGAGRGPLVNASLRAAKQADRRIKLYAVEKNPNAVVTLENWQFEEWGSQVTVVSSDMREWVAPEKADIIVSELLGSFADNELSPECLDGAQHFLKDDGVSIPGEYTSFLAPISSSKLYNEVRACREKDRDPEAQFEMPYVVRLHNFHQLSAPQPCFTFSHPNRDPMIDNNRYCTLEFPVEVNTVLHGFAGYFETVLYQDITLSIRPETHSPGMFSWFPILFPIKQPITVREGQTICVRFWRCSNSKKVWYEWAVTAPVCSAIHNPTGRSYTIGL
Sequence of PRMT5/MEP50 complex (Q9BQA1 2-342 partner): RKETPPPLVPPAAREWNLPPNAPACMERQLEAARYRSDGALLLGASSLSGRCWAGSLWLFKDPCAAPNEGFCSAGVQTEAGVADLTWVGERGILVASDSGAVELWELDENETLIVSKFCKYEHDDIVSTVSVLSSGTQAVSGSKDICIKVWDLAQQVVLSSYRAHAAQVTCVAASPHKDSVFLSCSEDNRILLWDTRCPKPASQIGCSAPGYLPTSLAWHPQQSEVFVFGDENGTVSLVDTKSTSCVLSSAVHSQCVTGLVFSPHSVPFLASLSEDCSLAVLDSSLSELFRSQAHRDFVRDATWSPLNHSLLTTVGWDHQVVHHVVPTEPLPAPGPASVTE

Structure (SMILES) | IC50 (PRMT5/MEP50 complex) | IC50 (HCT116 parental cells) | IC50 [1] | IC50 [2] | IC50 [3]
Cn1ncc(-c2ccc3c(=O)[nH]nc(CN)c3c2)c1-c1ccc2cccnc2c1C#N [Example 4-192, 7-(4-(4-(aminomethyl)-1-oxo-1,2-dihydrophthalazin-6-yl)-1-methyl-1H-pyrazol-5-yl)quinoline-8-carbonitrile] | 890 nM | > 10000 nM | 2140 nM | > 10000 nM | 256 nM
Cn1ncc(-c2ccc3c(=O)[nH]nc(CN)c3c2)c1-c1ccc2c(c1C#N)CCCO2 [Example 4-196, 6-(4-(4-(aminomethyl)-1-oxo-1,2-dihydrophthalazin-6-yl)-1-methyl-1H-pyrazol-5-yl)chromane-5-carbonitrile] | 653 nM | 9290 nM | 154 nM | 1320 nM | 11 nM
COc1cnc2ccc(-c3c(-c4ccc5c(=O)[nH]nc(CN)c5c4)cnn3C)c(C#N)c2c1 [Example 4-197, 6-(4-(4-(aminomethyl)-1-oxo-1,2-dihydrophthalazin-6-yl)-1-methyl-1H-pyrazol-5-yl)-3-methoxyquinoline-5-carbonitrile] | 719 nM | 8570 nM | 256 nM | > 1000 nM | 25 nM
Cn1ncc(-c2ccc3c(=O)[nH]nc(CN)c3c2)c1-c1cccc(C2CC2)c1C#N [Example 4-198, 2-(4-(4-(aminomethyl)-1-oxo-1,2-dihydrophthalazin-6-yl)-1-methyl-1H-pyrazol-5-yl)-6-cyclopropylbenzonitrile] | 111 nM | 7340 nM | 136 nM | 1270 nM | 21 nM
CCc1cc(Cl)cc(-c2c(-c3ccc4c(=O)[nH]nc(CN)c4c3)cnn2C)c1C#N [Example 4-200, 2-(4-(4-(aminomethyl)-1-oxo-1,2-dihydrophthalazin-6-yl)-1-methyl-1H-pyrazol-5-yl)-4-chloro-6-ethylbenzonitrile] | 156 nM | 4300 nM | 71 nM | 1750 nM | 32 nM
CCc1cc(OC)cc(-c2c(-c3ccc4c(=O)[nH]nc(CN)c4c3)cnn2C)c1C#N [Example 4-202, 2-(4-(4-(aminomethyl)-1-oxo-1,2-dihydrophthalazin-6-yl)-1-methyl-1H-pyrazol-5-yl)-6-ethyl-4-methoxybenzonitrile] | 255 nM | 2370 nM | 232 nM | > 1000 nM | 8 nM
COc1cc(-c2c(-c3ccc4c(=O)[nH]nc(CN)c4c3)cnn2C)c(C#N)c2ccccc12 [Example 4-205, 2-(4-(4-(aminomethyl)-1-oxo-1,2-dihydrophthalazin-6-yl)-1-methyl-1H-pyrazol-5-yl)-4-methoxy-1-naphthonitrile] | 23 nM | 683 nM | 59 nM | > 1000 nM | 6 nM
Cn1ncc(-c2ccc3c(=O)[nH]nc(CN)c3c2)c1-c1cc(Cl)c2ccccc2c1C#N [Example 4-206, 2-(4-(4-(aminomethyl)-1-oxo-1,2-dihydrophthalazin-6-yl)-1-methyl-1H-pyrazol-5-yl)-4-chloro-1-naphthonitrile] | 35 nM | 1000 nM | 34 nM | > 1000 nM | 3 nM
Cn1ncc(-c2ccc3c(=O)[nH]nc(CN)c3c2)c1-c1sc2ccccc2c1C#N [Example 4-242, 2-(4-(4-(aminomethyl)-1-oxo-1,2-dihydrophthalazin-6-yl)-1-methyl-1H-pyrazol-5-yl)benzo[b]thiophene-3-carbonitrile] | 102 nM | 4990 nM | 44 nM | > 1000 nM | 2 nM
Cn1ncc(-c2cc(Cl)c3c(=O)[nH]nc(CN)c3c2)c1-c1ccc2ccccc2c1C#N [Example 10-1, 2-(4-(4-(aminomethyl)-8-chloro-1-oxo-1,2-dihydrophthalazin-6-yl)-1-methyl-1H-pyrazol-5-yl)-1-naphthonitrile] | 41.7 nM | 2300 nM | 36 nM | 1120 nM | 15 nM
Cn1ncc(-c2cc(F)c3c(=O)[nH]nc(CN)c3c2)c1-c1ccc2ccccc2c1C#N [Example 10-2, 2-(4-(4-(aminomethyl)-8-fluoro-1-oxo-1,2-dihydrophthalazin-6-yl)-1-methyl-1H-pyrazol-5-yl)-1-naphthonitrile] | 67.2 nM | 3380 nM | 112 nM | 2480 nM | 6 nM
Cn1ncc(-c2cc(Cl)c3c(=O)[nH]nc(CN)c3c2)c1-c1cccc(Cl)c1C#N [Example 10-3, 2-(4-(4-(aminomethyl)-8-chloro-1-oxo-1,2-dihydrophthalazin-6-yl)-1-methyl-1H-pyrazol-5-yl)-6-chlorobenzonitrile] | 845 nM | 8480 nM | 240 nM | 3820 nM | 5 nM
CCc1cccc(-c2c(-c3cc(Cl)c4c(=O)[nH]nc(CN)c4c3)cnn2C)c1C#N [Example 10-4, 2-(4-(4-(aminomethyl)-8-chloro-1-oxo-1,2-dihydrophthalazin-6-yl)-1-methyl-1H-pyrazol-5-yl)-6-ethylbenzonitrile] | 417 nM | > 10000 nM | 128 nM | 9220 nM | 7 nM
CCOc1cccc(-c2c(-c3cc(Cl)c4c(=O)[nH]nc(CN)c4c3)cnn2C)c1C#N [Example 10-5, 2-(4-(4-(aminomethyl)-8-chloro-1-oxo-1,2-dihydrophthalazin-6-yl)-1-methyl-1H-pyrazol-5-yl)-6-ethoxybenzonitrile] | 1150 nM | > 10000 nM | 250 nM | > 10000 nM | 30 nM
Cn1ncc(-c2cc(F)c3c(=O)[nH]nc(CN)c3c2)c1-c1cccc(Cl)c1C#N [Example 10-6, 2-(4-(4-(aminomethyl)-8-fluoro-1-oxo-1,2-dihydrophthalazin-6-yl)-1-methyl-1H-pyrazol-5-yl)-6-chlorobenzonitrile] | 6630 nM | > 10000 nM | 4090 nM | > 10000 nM | 219 nM
CCc1cccc(-c2c(-c3cc(C)c4c(=O)[nH]nc(CN)c4c3)cnn2C)c1C#N [Example 10-7, 2-(4-(4-(aminomethyl)-8-methyl-1-oxo-1,2-dihydrophthalazin-6-yl)-1-methyl-1H-pyrazol-5-yl)-6-ethylbenzonitrile] | 107 nM | 8390 nM | 103 nM | > 1000 nM | 31 nM
CCc1cccc(-c2c(-c3cc(F)c4c(=O)[nH]nc(CN)c4c3)cnn2C)c1C#N [Example 10-8, 2-(4-(4-(aminomethyl)-8-fluoro-1-oxo-1,2-dihydrophthalazin-6-yl)-1-methyl-1H-pyrazol-5-yl)-6-ethylbenzonitrile] | 660 nM | > 10000 nM | 276 nM | 4720 nM | 27 nM
CCOc1cccc(-c2c(-c3cc(F)c4c(=O)[nH]nc(CN)c4c3)cnn2C)c1C#N [Example 10-10, 2-(4-(4-(aminomethyl)-8-fluoro-1-oxo-1,2-dihydrophthalazin-6-yl)-1-methyl-1H-pyrazol-5-yl)-6-ethoxybenzonitrile] | 2730 nM | > 10000 nM | 1250 nM | > 10000 nM | 89 nM
Cc1cc(-c2cnn(C)c2-c2ccc3ccccc3c2C#N)cc2c(CN)n[nH]c(=O)c12 [Example 10-11, 2-(4-(4-(aminomethyl)-8-methyl-1-oxo-1,2-dihydrophthalazin-6-yl)-1-methyl-1H-pyrazol-5-yl)-1-naphthonitrile] | 34 nM | 763 nM | 29 nM | 4260 nM | 5 nM
Cc1cc(-c2cnn(C)c2-c2cccc(OC3CC3)c2C#N)cc2c(CN)n[nH]c(=O)c12 [Example 10-12, 2-(4-(4-(aminomethyl)-8-methyl-1-oxo-1,2-dihydrophthalazin-6-yl)-1-methyl-1H-pyrazol-5-yl)-6-cyclopropoxybenzonitrile] | 155 nM | 6200 nM | 91 nM | > 1000 nM | 6 nM
[2H]C([2H])(N)c1n[nH]c(=O)c2ccc(-c3cnn(C)c3-c3cccc(Cl)c3C#N)cc12 [Example 11-1, 2-(4-(4-(aminomethyl-d2)-1-oxo-1,2-dihydrophthalazin-6-yl)-1-methyl-1H-pyrazol-5-yl)-6-chlorobenzonitrile] | 1970 nM | > 10000 nM | 807 nM | > 1000 nM | 57 nM
[2H]C([2H])(N)c1n[nH]c(=O)c2ccc(-c3cnn(C)c3-c3ccc4ccccc4c3C#N)cc12 [Example 11-2, 2-(4-(4-(aminomethyl-d2)-1-oxo-1,2-dihydrophthalazin-6-yl)-1-methyl-1H-pyrazol-5-yl)-1-naphthonitrile] | 138 nM | 1950 nM | 94 nM | > 10000 nM | 1 nM
